Measurements as given in patent publication EP4610269A1, “UROKINASE PLASMINOGEN ACTIVATOR SURFACE RECEPTOR (UPAR) LIGANDS FOR DIAGNOSTIC OR THERAPEUTIC USE” (3B Pharmaceuticals GmbH, priority 2024, dated 2025).
Where two headings read alike, the source gives them in different places. *1 amine or outer side, *2 acyl side, *3 side chain or, on linkers, in order; H or OH if unused. Where a SMILES comes first, the peptide text is derived from it. Bridges are numbered along the chain shown (N, C = ends). [ ]: non-standard residue; d: D form. The star is where a group is joined. DOTA = O=C(O)CN1CCN(CC(=O)O)CCN(CC(=O)*)CCN(CC(=O)O)CC1; Pro(cis-4-F) = O=C(O)[C@@H]1C[C@H](F)CN1; Pro(4R-NH2) = N[C@H]1CN[C@H](C(=O)O)C1; Ethylenediamine = C(CN[*:2])N[*:1]; Hyp = O=C(O)[C@@H]1C[C@@H](O)CN1; NMeI = CC[C@H](C)[C@H](NC)C(=O)O; Pentanoyl(4-Me) = CC(C)CCC(=O)*; Cha = N[C@@H](CC1CCCCC1)C(=O)O; Cit = NC(=O)NCCC[C@H](N)C(=O)O; Butoxycarbonyl = CCCCOC(=O)*; Nva = CCC[C@H](N)C(=O)O; Dap = NC[C@H](N)C(=O)O; Pentanoyl = CCCCC(=O)*

Tests used:
[1] = target: T1, human uPAR (uPAR-Fc) (Homo sapiens, UniProt Q03405); assay: Surface plasmon resonance (SPR) assay, single cycle kinetics; format: binding; conditions: pKD category for uPAR SPR activity assay, uPAR-Fc on Protein A-Chip, 25°C; for Kd: read-out: pKD CAT (converted)
T1 construct: comprising amino acids Leu23-Arg303 according to UniProt entry Q03405.1; purchased R&D Systems 10378-UK-100
T1 sequence (Q03405 23-303): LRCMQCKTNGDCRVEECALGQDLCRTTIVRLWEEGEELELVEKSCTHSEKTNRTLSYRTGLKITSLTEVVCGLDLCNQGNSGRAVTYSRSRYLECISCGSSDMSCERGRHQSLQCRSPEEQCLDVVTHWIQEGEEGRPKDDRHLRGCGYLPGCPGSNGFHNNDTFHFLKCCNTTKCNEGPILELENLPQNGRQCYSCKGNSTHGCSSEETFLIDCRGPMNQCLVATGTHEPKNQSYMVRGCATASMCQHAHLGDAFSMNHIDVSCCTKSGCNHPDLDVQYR
In short: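 uPAR-Fc (Leu23-Arg303 extracellular domains, human IgG1 Fc) captured on Protein A chip to ~2000 RU; single-cycle kinetics at 25°C in HEPES running buffer pH 7.4 with 0.1% DMSO. KD from double-referenced sensorgrams fitted to 1:1 Langmuir model, reported as pKD.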

[2] = target: T2, uPAR-expressing HEC-265 human endometrial adenocarcinoma cells (Homo sapiens, UniProt Q03405); assay: Competitive FACS binding assay; conditions: pIC50 category of FACS binding
T2 construct: Cell surface uPAR-expressing HEC-265 human endometrial adenocarcinoma cells; host or cells: HEC-265
T2 sequence (Q03405 23-335): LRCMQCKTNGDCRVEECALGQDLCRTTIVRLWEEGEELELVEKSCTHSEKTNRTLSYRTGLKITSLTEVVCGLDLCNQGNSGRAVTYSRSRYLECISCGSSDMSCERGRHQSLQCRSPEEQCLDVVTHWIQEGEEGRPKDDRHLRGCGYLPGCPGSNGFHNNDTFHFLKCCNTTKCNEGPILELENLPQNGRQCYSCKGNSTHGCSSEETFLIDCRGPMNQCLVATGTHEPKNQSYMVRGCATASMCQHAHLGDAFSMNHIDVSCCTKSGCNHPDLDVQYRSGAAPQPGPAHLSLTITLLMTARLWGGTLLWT
In short: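 Competitive displacement of a 10 nM biotinylated peptide from HEC-265 cells (1 h, 4 °C, PBS/1% BSA), detected via APC-streptavidin by flow cytometry. pIC50 from four-parameter logistic fit of median fluorescence versus concentration.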

Row | Compound | Kd ([1]; single cycle kinetics) | IC50 [2] | Kd [1] | pKD CAT [1] | pIC50 CAT [2]
1 | CCCCC(=O)N[C@H]1CSSC[C@@H](C(N)=O)NC(=O)[C@H](CCC)NC(=O)[C@H]([C@@H](C)CC)NC(=O)[C@@H]2C[C@@H](O)CN2C(=O)[C@@H]2CCCN2C(=O)[C@H](Cc2ccccc2)NC(=O)[C@H](Cc2ccc(O)cc2)NC(=O)[C@H](CCCCNC(=O)CN2CCN(CC(=O)O)CCN(CC(=O)O)CCN(CC(=O)O)CC2)NC(=O)[C@H](CO)NC1=O [UPAR-342, Pent-[Cys-Ser-Lys(DOTA)-Tyr-Phe-Pro-Hyp-Ile-Nva-Cys]-NH2] (Pentanoyl-CSK(DOTA)YFP[Hyp]I[Nva]C-NH2; disulfide 1-10) | – | ≤ 0.01 µM | < 0.00158 µM | – | –
2 | CCCCC(=O)N[C@H]1CSSC[C@@H](C(N)=O)NC(=O)[C@H](CCC)NC(=O)[C@H]([C@@H](C)CC)NC(=O)[C@H](Cc2ccc(O)cc2)NC(=O)[C@@H]2CCCN2C(=O)[C@H](Cc2ccccc2)NC(=O)[C@H](Cc2ccc(O)cc2)NC(=O)[C@H](CCC(N)=O)NC(=O)[C@H](CCCNC(=N)N)NC1=O [UPAR-226, Pent-[Cys-Arg-Gln-Tyr-Phe-Pro-Tyr-Ile-Nva-Cys]-NH2] (Pentanoyl-CRQYFPYI[Nva]C-NH2; disulfide 1-10) | – | ≤ 0.01 µM | < 0.00158 µM | – | –
3 | CCC[C@@H]1NC(=O)[C@@H](C)NC(=O)[C@@H]2CCCN2C(=O)[C@H](Cc2ccccc2)NC(=O)[C@H](Cc2ccc(O)cc2)NC(=O)[C@H](CCC(N)=O)NC(=O)[C@H](CCCNC(N)=O)NC(=O)[C@@H](NC(=O)CCC(C)C)CSSC[C@@H](C(N)=O)NC(=O)[C@H](CC(C)C)NC1=O [UPAR-136, iHex-[Cys-Cit-Gln-Tyr-Phe-Pro-ala-Nva-Leu-Cys]-NH2] ({Pentanoyl(4-Me)}-C[Cit]QYFP[dA][Nva]LC-NH2; disulfide 1-10) | – | ≤ 0.01 µM | 0.00158 to 0.01 µM | – | –
4 | CC[C@H](C)[C@@H]1NC(=O)[C@@H](C)NC(=O)[C@@H]2CCCN2C(=O)[C@H](Cc2ccccc2)NC(=O)[C@H](Cc2ccc(O)cc2)NC(=O)[C@H](CCC(N)=O)NC(=O)[C@H](CCCNC(N)=O)NC(=O)[C@@H](NC(=O)CCC(C)C)CSSC[C@@H](C(N)=O)NC(=O)[C@H](C(C)C)NC1=O [UPAR-184, iHex-[Cys-Cit-Gln-Tyr-Phe-Pro-ala-Ile-Val-Cys]-NH2] ({Pentanoyl(4-Me)}-C[Cit]QYFP[dA]IVC-NH2; disulfide 1-10) | – | ≤ 0.01 µM | 0.00158 to 0.01 µM | – | –
5 | CC[C@H](C)[C@H]1C(=O)N[C@@H](CC(C)C)C(=O)N[C@H](C(N)=O)CSSC[C@H](NC(=O)CCC(C)C)C(=O)N[C@@H](CCCNC(N)=O)C(=O)N[C@@H](CCC(N)=O)C(=O)N[C@@H](Cc2ccc(O)cc2)C(=O)N[C@@H](Cc2ccccc2)C(=O)N2CCC[C@H]2C(=O)N[C@H](C)C(=O)N1C [UPAR-340, iHex-[Cys-Cit-Gln-Tyr-Phe-Pro-ala-Nmi-Leu-Cys]-NH2] ({Pentanoyl(4-Me)}-C[Cit]QYFP[dA][NMeI]LC-NH2; disulfide 1-10) | – | ≥ 0.126 µM | 0.01 to 0.1 µM | – | –
6 | Pent-[Cys-Cit-Lys(InDOTA)-Tyr-Mpa-Pro-Hyp-Ile-Nva-Cys]-NH2 [UPAR-331] | – | – | – | A (pKD values ≥ 8.8) | A (pIC50 values ≥8.0)
7 | CCC[C@@H]1NC(=O)[C@H]([C@@H](C)CC)NC(=O)[C@@H]2C[C@@H](O)CN2C(=O)[C@@H]2CCCN2C(=O)[C@H](Cc2ccccc2)NC(=O)[C@H](Cc2ccc(O)cc2)NC(=O)[C@H](CCC(N)=O)NC(=O)[C@H](CCCNC(=N)N)NC(=O)[C@@H](NC(=O)[C@H](CC2CCCCC2)NC(C)=O)CSSC[C@@H](C(N)=O)NC1=O [UPAR-372, Ac-Cha-[Cys-Arg-Gln-Tyr-Phe-Pro-Hyp-Ile-Nva-Cys]-NH2] (Ac-[Cha]CRQYFP[Hyp]I[Nva]C-NH2; disulfide 2-11) | < 0.00158 µM | ≤ 0.01 µM | – | – | –
8 | CCCCOC(=O)N[C@H]1CSSC[C@@H](C(N)=O)NC(=O)[C@H](CCC)NC(=O)[C@H]([C@@H](C)CC)NC(=O)[C@@H]2C[C@@H](O)CN2C(=O)[C@@H]2C[C@H](F)CN2C(=O)[C@H](Cc2ccccc2)NC(=O)[C@H](Cc2ccc(O)cc2)NC(=O)[C@H](CNC(=O)CN2CCN(CC(=O)O)CCN(CC(=O)O)CCN(CC(=O)O)CC2)NC(=O)[C@H]([C@@H](C)O)NC1=O [UPAR-455, Butoc-[Cys-Thr-Dap(DOTA)-Tyr-Phe-4Cfp-Hyp-Ile-Nva-Cys]-NH2] (Butoxycarbonyl-CT[Dap](DOTA)YF[Pro(cis-4-F)][Hyp]I[Nva]C-NH2; disulfide 1-10) | < 0.00158 µM | ≤ 0.01 µM | – | – | –

Now from value to compound:

Row | Kd ([1]; single cycle kinetics) | IC50 [2] | Kd [1] | pKD CAT [1] | pIC50 CAT [2] | Compound
9 | < 0.00158 µM | ≤ 0.01 µM | – | – | – | CCCCC(=O)N[C@H]1CSSC[C@@H](C(N)=O)NC(=O)[C@H](CCC)NC(=O)[C@H]([C@@H](C)CC)NC(=O)CNC(=O)[C@@H]2CCCN2C(=O)[C@H](Cc2ccccc2)NC(=O)[C@H](Cc2ccc(O)cc2)NC(=O)[C@H](CCCCNC(=O)CN2CCN(CC(=O)O)CCN(CC(=O)O)CCN(CC(=O)O)CC2)NC(=O)[C@H](CCCNC(N)=O)NC1=O [UPAR-425, Pent-[Cys-Cit-Lys(DOTA)-Tyr-Phe-Pro-Gly-Ile-Nva-Cys]-NH2] (Pentanoyl-C[Cit]K(DOTA)YFPGI[Nva]C-NH2; disulfide 1-10)
10 | < 0.00158 µM | ≤ 0.01 µM | – | – | – | CC[C@H](C)[C@@H]1NC(=O)[C@H](CCCNC(=N)N)NC(=O)[C@@H]2CCCN2C(=O)[C@H](Cc2ccccc2)NC(=O)[C@H](Cc2ccc(O)cc2)NC(=O)[C@H](CCCCNC(=O)CN2CCN(CC(=O)O)CCN(CC(=O)O)CCN(CC(=O)O)CC2)NC(=O)[C@H](CCCNC(N)=O)NC(=O)[C@@H](NC(=O)[C@H](CC(C)C)NC(=O)[C@H](CC(=O)O)NC(C)=O)CSSC[C@@H](C(N)=O)NC(=O)[C@H](CC(C)C)NC1=O [UPAR-423, Ac-Asp-Leu-[Cys-Cit-Lys(DOTA)-Tyr-Phe-Pro-Arg-Ile-Leu-Cys]-NH2] (Ac-DLC[Cit]K(DOTA)YFPRILC-NH2; disulfide 3-12)
11 | < 0.00158 µM | ≤ 0.01 µM | – | – | – | CCCCC(=O)N[C@H]1CSSC[C@@H](C(N)=O)NC(=O)[C@H](CCC)NC(=O)[C@H]([C@@H](C)CC)NC(=O)[C@@H]2C[C@@H](O)CN2C(=O)[C@@H]2CCCN2C(=O)[C@H](Cc2ccccc2)NC(=O)[C@H](Cc2ccc(O)cc2)NC(=O)[C@H](CCC(N)=O)NC(=O)[C@H](CC(C)C)NC1=O [UPAR-391, Pent-[Cys-Leu-Gln-Tyr-Phe-Pro-Hyp-Ile-Nva-Cys]-NH2] (Pentanoyl-CLQYFP[Hyp]I[Nva]C-NH2; disulfide 1-10)
12 | > 0.1 µM | ≥ 0.126 µM | – | – | – | CC[C@H](C)[C@@H]1NC(=O)[C@@H](C)NC(=O)[C@@H]2CCCN2C(=O)[C@H](Cc2ccccc2)NC(=O)[C@H](Cc2ccc(O)cc2)NC(=O)[C@H](CCC(N)=O)NC(=O)[C@H](CCCNC(N)=O)NC(=O)[C@@H](NC(=O)CCC(C)C)CSSC[C@@H](C(N)=O)NC(=O)[C@H](CC2CCCCC2)NC1=O [UPAR-474, iHex-[Cys-Cit-Gln-Tyr-Phe-Pro-ala-Ile-Cha-Cys]-NH2] ({Pentanoyl(4-Me)}-C[Cit]QYFP[dA]I[Cha]C-NH2; disulfide 1-10)
13 | < 0.00158 µM | ≤ 0.01 µM | – | – | – | CCCCC(=O)N[C@H]1CSSC[C@@H](C(N)=O)NC(=O)[C@H](CC(C)C)NC(=O)[C@H]([C@@H](C)CC)NC(=O)[C@@H]2CCCN2C(=O)[C@@H]2CCCN2C(=O)[C@H](Cc2ccccc2)NC(=O)[C@H](Cc2ccc(O)cc2)NC(=O)[C@H](CCCCNC(=O)CN2CCN(CC(=O)O)CCN(CC(=O)O)CCN(CC(=O)O)CC2)NC(=O)[C@H](CCCNC(N)=O)NC1=O [UPAR-396, Pent-[Cys-Cit-Lys(DOTA)-Tyr-Phe-Pro-Pro-Ile-Leu-Cys]-NH2] (Pentanoyl-C[Cit]K(DOTA)YFPPILC-NH2; disulfide 1-10)
14 | 0.00158 to 0.01 µM | ≤ 0.01 µM | – | – | – | CCCCC(=O)N[C@H]1CSSC[C@@H](C(N)=O)NC(=O)[C@H](CCC)NC(=O)[C@H]([C@@H](C)CC)NC(=O)[C@@H]2C[C@@H](O)CN2C(=O)[C@H](Cc2ccccc2)NC(=O)[C@H](Cc2ccccc2)NC(=O)[C@H](Cc2ccc(O)cc2)NC(=O)[C@H](CCC(N)=O)NC(=O)[C@H](CCCNC(=N)N)NC1=O [UPAR-400, Pent-[Cys-Arg-Gln-Tyr-Phe-Phe-Hyp-Ile-Nva-Cys]-NH2] (Pentanoyl-CRQYFF[Hyp]I[Nva]C-NH2; disulfide 1-10)
15 | < 0.00158 µM | ≤ 0.01 µM | – | – | – | CCCCC(=O)N[C@H]1CSSC[C@@H](C(N)=O)NC(=O)[C@H](CCC)NC(=O)[C@H]([C@@H](C)CC)NC(=O)[C@@H]2C[C@@H](N)CN2C(=O)[C@@H]2CCCN2C(=O)[C@H](Cc2ccccc2)NC(=O)[C@H](Cc2ccc(O)cc2)NC(=O)[C@H](CCCCNC(=O)CN2CCN(CC(=O)O)CCN(CC(=O)O)CCN(CC(=O)O)CC2)NC(=O)[C@H](CCCNC(N)=O)NC1=O [UPAR-377, Pent-[Cys-Cit-Lys(DOTA)-Tyr-Phe-Pro-Tap-Ile-Nva-Cys]-NH2] (Pentanoyl-C[Cit]K(DOTA)YFP[Pro(4R-NH2)]I[Nva]C-NH2; disulfide 1-10)
16 | 0.00158 to 0.01 µM | 0.0126 to 0.0316 µM | – | – | – | CCCCC(=O)N[C@H]1CSSC[C@@H](C(=O)NCCN)NC(=O)[C@H](CCC)NC(=O)[C@H]([C@@H](C)CC)NC(=O)[C@@H]2C[C@@H](O)CN2C(=O)[C@@H]2CCCN2C(=O)[C@H](Cc2ccccc2)NC(=O)[C@H](Cc2ccc(O)cc2)NC(=O)[C@H](CCC(N)=O)NC(=O)[C@H](CCCNC(N)=O)NC1=O [UPAR-430, Pent-[Cys-Cit-Gln-Tyr-Phe-Pro-Hyp-Ile-Nva-Cys]-en] (Pentanoyl-C[Cit]QYFP[Hyp]I[Nva]C-Ethylenediamine; disulfide 1-10)
